# Structures can show the parent of a compound that is named as a salt.
# How the values were obtained:
# Format in all cases: in vivo
# [1] = Body weight before and after drug administration in KKAy mice; conditions: male KKAy mice; for Change in body weight compared to the value before drug administration: paired t-test; for Body weight, After administration: at final administration; for Body weight, After administration / Body weight, Before administration: mean ± standard error; for Body weight, Before administration: baseline, day before start of dosing
# Excerpt: (§1) For the experiment, male KKAy mice (CLEA Japan, Inc.) were used. KKAy mice show obesity and high blood glucose from 7 or 8 weeks old, and are commonly used as model mice for type 2 diabetes. The KKAy mice were purchased when they were 5 weeks old, and, from immediately thereafter, fed with CMF feed (Oriental Yeast Co., Ltd.) for 3 weeks under free food/water intake conditions, before being subjected to the experiment. For continuous subcutaneous administration of a solvent (physiological saline, 6 μL/day) or BPS (1 mg/kg/day, commercially available product from Toray Industries, Inc.), a minipump for sustained release (Alzet micro osmotic pump model 1002, Alzet osmotic pumps company) was subcutaneously placed in each KKAy mouse. The continuous administration of physiological saline or BPS was carried out until the end of the experiment. From 3 days after the placement (beginning of the subcutaneous continuous administration), oral administration of a solvent (0.5% methyl cellulose (MC) solution, 10 mL/kg) or pioglitazone hydrochloride (product synthesized in Toray Industries, Inc.) was started. Pioglitazone hydrochloride was administered as a suspension in 0.5% MC solution. The 0.5% MC solution and pioglitazone hydrochloride were administered for 10 days, during which the administration was carried out once per day in the evening. The mice were divided into the following experimental groups: • (1) Control group (n=8): physiological saline (6 μL/day)+0.5% MC solution (10 mL/kg) • (2) BPS group (n=6): BPS (1 mg/kg/day)+0.5% MC solution (10 mL/kg) • (3) Pioglitazone hydrochloride 3 mg group (n=6): physiological saline (6 μL/day)+pioglitazone hydrochloride (3 mg/kg) • (4) BPS/pioglitazone hydrochloride 3 mg-combined-use group (n=6): BPS (1 mg/kg/day)+pioglitazone hydrochloride (3 mg/kg) • (5) Pioglitazone hydrochloride 30 mg group (n=6): physiological saline (6 μL/day)+pioglitazone hydrochloride (30 mg/kg).
# (§2) The body weight and the casual blood glucose level were measured on the day before starting of the continuous administration of physiological saline or BPS (these correspond to the data shown in the “Before administration” columns in Tables 1 and 2). The body weight was measured when 0.5% MC solution or pioglitazone hydrochloride was finally administered, and the casual blood glucose level was measured about 18 hours after the final administration (these correspond to the data shown in the “After administration” columns in Tables 1 and 2). The casual blood glucose level was measured by collecting about 5 μL of blood from the tail vein and subjecting the blood to measurement with a simplified blood glucose meter (Medisense Precision Xceed, ABBOTT JAPAN Co., LTD.).
# KKAy mice [2] = experiment: Casual blood glucose level before and after drug administration in KKAy mice; conditions: male KKAy mice; for Casual blood glucose level, After administration: about 18 hours after final administration; for Casual blood glucose level, After administration / Casual blood glucose level, Before administration: mean ± standard error; for Casual blood glucose level, Before administration: baseline, day before start of dosing
# Excerpt: as §1, §2
# KKAy mice [3] = experiment: Glucose tolerance test after drug administration in KKAy mice; conditions: male KKAy mice; for ΔAUC0-120 (area under the Δblood glucose level-time curve, 0 to 120 minutes): oral glucose 1.5 g/kg after fasting, mean ± standard error, in mg·min/dL (unit assumed)
# Description: For the experiment, male KKAy mice (CLEA Japan, Inc.) were used. […] Pioglitazone hydrochloride was administered as a suspension in 0.5% MC solution. […] The continuous administration of physiological saline or BPS was carried out until the end of the experiment. The experimental groups were as follows: • (1) Control group (n=6): physiological saline (6 μL/day)+0.5% MC solution (10 mL/kg) • (2) BPS group (n=5): BPS (1 mg/kg/day)+0.5% MC solution (10 mL/kg) • (3) Pioglitazone hydrochloride 3 mg group (n=5): physiological saline (6 μL/day)+pioglitazone hydrochloride (3 mg/kg) • (4) BPS/pioglitazone hydrochloride 3 mg-combined-use group (n=6): BPS (1 mg/kg/day)+pioglitazone hydrochloride (3 mg/kg) • (5) Pioglitazone hydrochloride 30 mg group (n=6): physiological saline (6 μL/day)+pioglitazone hydrochloride (30 mg/kg). […] The increase in the blood glucose level at each timing relative to the blood glucose level observed immediately before the administration of glucose (0 minute) was defined as Δblood glucose level. The length of time (minutes) after the administration of glucose was plotted along the abscissa and Δblood glucose level (mg/dL) was plotted along the ordinate, to calculate the area under the Δblood glucose level-time curve from 0 minute to 120 minutes (ΔAUC0-120).
# [4] = BPS 1 mg/kg/day s.c. continuous and/or pioglitazone hydrochloride 3 mg/kg p.o. once daily 10 days
# [5] = groups BPS 1 mg/kg/day s.c. continuous and/or pioglitazone hydrochloride 3 mg/kg p.o.
# [6] = pioglitazone hydrochloride 30 mg/kg group
# [7] = pioglitazone hydrochloride 30 mg/kg p.o. once daily 10 days
# [8] = BPS 1 mg/kg/day s.c. continuous and/or pioglitazone hydrochloride 3 mg/kg p.o. once daily 20 days
Structure (SMILES),Change in body weight compared to the value before drug administration ([1]; BPS 1 mg/kg/day s.c. and/or pioglitazone hydrochloride 3 mg/kg p.o.),"Body weight, After administration [1, 4]","Body weight, Before administration [1, 5]","Body weight, Before administration [1, 6]","Body weight, After administration [1, 7]",Change in body weight compared to the value before drug administration ([1]; pioglitazone hydrochloride 30 mg/kg p.o.),"Casual blood glucose level, After administration (KKAy mice [2]; [4])","Casual blood glucose level, Before administration (KKAy mice [2]; [5])","Casual blood glucose level, Before administration (KKAy mice [2]; [6])","Casual blood glucose level, After administration (KKAy mice [2]; [7])","ΔAUC0-120 (area under the Δblood glucose level-time curve, 0 to 120 minutes) (KKAy mice [3]; [8])","ΔAUC0-120 (area under the Δblood glucose level-time curve, 0 to 120 minutes) (KKAy mice [3]; pioglitazone hydrochloride 30 mg/kg p.o. once daily 20 days)","Change in casual blood glucose level compared to the value before drug administration (KKAy mice [2]; BPS 1 mg/kg/day s.c. and/or pioglitazone hydrochloride 3 mg/kg p.o., paired t-test)","Change in ΔAUC0-120 compared to the control group (KKAy mice [3]; glucose tolerance test, BPS 1 mg/kg/day s.c. and/or pioglitazone hydrochloride 3 mg/kg p.o.)"
"CCc1ccc(CCOc2ccc(CC3SC(=O)NC3=O)cc2)nc1 (stereo not shown) [Pioglitazone hydrochloride, pioglitazone hydrochloride]",significant increase,44.2 ± 1.3 g,41.7 ± 1.2 g,42.6 ± 1.1 g,46.7 ± 1.3 g,significant increase,452.8 ± 53.4 mg/dL,450.3 ± 15.4 mg/dL,437.7 ± 21.7 mg/dL,271.3 ± 16.9 mg/dL,23138 ± 4870,22461 ± 2157,,
"CC#CCC(C)[C@H](O)/C=C/[C@@H]1[C@H]2c3cccc(CCCC(=O)O)c3O[C@H]2C[C@H]1O (mixture of isomers) [BPS, beraprost sodium]",,42.3 ± 1.1 g,41.2 ± 0.8 g,,,,392.3 ± 28.9 mg/dL,493.0 ± 35.6 mg/dL,,,18684 ± 3551,,no change,no change

# Source: patent US9492422B2, “Therapeutic or prophylactic agent for diabetes” (Toray Industries, Inc., priority 2009, dated 2016)
